From patent US7928098B2, “Therapeutic and/or preventive agents for a sleep disorder” (Kyowa Hakko Kirin Co., Ltd., priority 2005, dated 2011)

melting point | Structure (SMILES)
170 to 174 °C | CCn1cc(C(=O)Nc2nc(-c3ccco3)c(C(=O)C3CCOCC3)s2)cn1 [Compound 425, 1-Ethyl-N-[4-(2-furyl)-5-(tetrahydropyran-4-ylcarbonyl)-thiazol-2-yl]pyrazole-4-carboxamide]
217 to 220 °C | O=C(Nc1nc(-c2ccco2)c(C(=O)C2CCOCC2)s1)c1cnn(-c2ccccc2)c1 [Compound 426, N-[4-(2-Furyl)-5-(tetrahydropyran-4-ylcarbonyl)thiazol-2-yl]-1-phenylpyrazole-4-carboxamide]
115 to 117 °C | O=C(c1sc(NC(=O)C2CCCO2)nc1-c1ccco1)C1CCOCC1 (stereo not drawn) [Compound 428, N-[4-(2-Furyl)-5-(tetrahydropyran-4-ylcarbonyl)thiazol-2-yl]tetrahydrofuran-2-carboxamide]
164 to 166 °C | O=C(Nc1nc(-c2ccco2)c(C(=O)C2CCOCC2)s1)C1CCOC1 (stereo not drawn) [Compound 429, N-[4-(2-Furyl)-5-(tetrahydropyran-4-ylcarbonyl)thiazol-2-yl]tetrahydrofuran-3-carboxamide]
206 to 209 °C | O=C(CC1CCOCC1)Nc1nc(-c2ccco2)c(C(=O)C2CCOCC2)s1 [Compound 430, N-[4-(2-Furyl)-5-(tetrahydropyran-4-ylcarbonyl)thiazol-2-yl]-2-(tetrahydropyran-4-yl)acetamide]
140 to 142 °C | O=C(Cc1ccccc1)Nc1nc(-c2ccco2)c(C(=O)C2CCOCC2)s1 [Compound 431, N-[4-(2-Furyl)-5-(tetrahydropyran-4-ylcarbonyl)thiazol-2-yl]-2-phenylacetamide]
161 to 164 °C | O=C(CCc1ccccc1)Nc1nc(-c2ccco2)c(C(=O)C2CCOCC2)s1 [Compound 432, N-[4-(2-Furyl)-5-(tetrahydropyran-4-ylcarbonyl)thiazol-2-yl]-3-phenylpropanamide]

Further lines, the compound ahead of its results:

Structure (SMILES) | melting point
O=C(Nc1nc(-c2ccco2)c(C(=O)C2CCOCC2)s1)c1ccccn1 [Compound 412, N-[4-(2-Furyl)-5-(tetrahydropyran-4-ylcarbonyl)thiazol-2-yl]pyridine-2-carboxamide] | 185 to 186 °C
O=C(Nc1nc(-c2ccco2)c(C(=O)C2CCOCC2)s1)c1cnccn1 [Compound 414, N-[4-(2-Furyl)-5-(tetrahydropyran-4-ylcarbonyl)thiazol-2-yl]pyrazine-2-carboxamide] | 200 to 205 °C
Cc1cnc(C(=O)Nc2nc(-c3ccco3)c(C(=O)C3CCOCC3)s2)cn1 [Compound 415, N-[4-(2-Furyl)-5-(tetrahydropyran-4-ylcarbonyl)thiazol-2-yl]-5-methylpyrazine-2-carboxamide] | 130 to 131 °C
Cc1ccc(C(=O)Nc2nc(-c3ccco3)c(C(=O)C3CCOCC3)s2)o1 [Compound 417, N-[4-(2-Furyl)-5-(tetrahydropyran-4-ylcarbonyl)thiazol-2-yl]-5-methylfuran-2-carboxamide] | 209 to 212 °C
O=C(Nc1nc(-c2ccco2)c(C(=O)C2CCOCC2)s1)c1ccoc1 [Compound 421, N-[4-(2-Furyl)-5-(tetrahydropyran-4-ylcarbonyl)thiazol-2-yl]furan-3-carboxamide] | 236 to 238 °C
O=C(Nc1nc(-c2ccco2)c(C(=O)C2CCOCC2)s1)c1cccs1 [Compound 422, N-[4-(2-Furyl)-5-(tetrahydropyran-4-ylcarbonyl)thiazol-2-yl]thiophene-2-carboxamide] | 231 to 232 °C
O=C(Nc1nc(-c2ccco2)c(C(=O)C2CCOCC2)s1)c1ccsc1 [Compound 423, N-[4-(2-Furyl)-5-(tetrahydropyran-4-ylcarbonyl)thiazol-2-yl]thiophene-3-carboxamide] | 227 to 229 °C
Cn1cc(C(=O)Nc2nc(-c3ccco3)c(C(=O)C3CCOCC3)s2)cn1 [Compound 424, N-[4-(2-Furyl)-5-(tetrahydropyran-4-ylcarbonyl)thiazol-2-yl]-1-methylpyrazole-4-carboxamide] | 243 to 247 °C
